Reference: patent US20140073651A1, “BENZAMIDE DERIVATIVES AS P2X7 RECEPTOR ANTAGONISTS” (Actelion Pharmaceuticals Ltd., priority 2011, published 2014)

These compounds were tested against T1, human recombinant P2X7 receptor (Homo sapiens, UniProt Q99572) (assay: YO-PRO assay (YO-PRO-1 uptake) in HEK cells stably expressing P2X7). Conditions: HEK-293 cells expressing human recombinant P2X7 receptor; ATP 250 μM, 90 minutes; YO-PRO-1 fluorescence (FLIPR tetra); read-out: IC50 (antagonistic activity with respect to the P2X7 receptor).
T1 construct: expressed in transfected cells
T1 sequence (Q99572 1-595): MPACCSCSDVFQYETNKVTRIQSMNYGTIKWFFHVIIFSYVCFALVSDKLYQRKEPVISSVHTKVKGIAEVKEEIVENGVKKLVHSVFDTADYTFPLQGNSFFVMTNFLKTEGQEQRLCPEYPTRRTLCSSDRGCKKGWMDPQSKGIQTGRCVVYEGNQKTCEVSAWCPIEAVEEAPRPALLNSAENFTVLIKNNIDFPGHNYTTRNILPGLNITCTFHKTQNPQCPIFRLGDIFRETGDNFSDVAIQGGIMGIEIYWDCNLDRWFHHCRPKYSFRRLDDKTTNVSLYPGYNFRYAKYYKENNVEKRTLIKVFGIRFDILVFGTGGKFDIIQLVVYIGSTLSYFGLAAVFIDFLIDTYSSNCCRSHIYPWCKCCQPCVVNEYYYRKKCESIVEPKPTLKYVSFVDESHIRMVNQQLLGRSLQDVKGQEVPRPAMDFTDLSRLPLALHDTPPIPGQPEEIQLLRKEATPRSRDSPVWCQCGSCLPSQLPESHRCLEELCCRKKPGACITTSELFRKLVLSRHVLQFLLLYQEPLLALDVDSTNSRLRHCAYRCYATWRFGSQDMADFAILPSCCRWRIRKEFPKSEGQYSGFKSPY
Type: cell-based
Protocol: Cell line generation was performed in general according to established molecular cloning protocols. Specifically, RNA was extracted from human whole blood using the Qiagen RNeasy kit (Qiagen, CH) according to the manufacturer's instructions. Subsequently cDNA was made (Superscript II, Invitrogen AG, CH) and the human P2X7 gene (genbank ref. BC011913) was amplified with the following primers: [NT] and [NT] The amplified sequence was subsequently ligated into a pcDNA3.1 (+) NotI, NheI digested plasmid. […] Following a 24 h exposure to DNA, cells were trypsinized and re-seeded at low density in the presence of 250 μg Geneticin. Geneticin resistant cells were then selected during two consecutive rounds of cloning by serial limiting dilution with visual inspection. Individual clones were screened for P2X7 expression by applying ATP and recording the resultant uptake of YO-[…]. Specific cell clones were chosen based on RNA and protein expression. HEK cells stably expressing P2X7 were used to screen drugs using the YO-[…] assay. Cells were grown to confluency in adherent culture at 37° C. in a humidified 5% CO2 incubator (split 1/5 every 3-4 days with DMEM, 10% FCS, 1% Penicillin/Streptomycin, 250 μg/ml Geneticin). Adherent cells were detached by incubation with Trypsine (1 ml per 165 cm^2 dish) for 2 minutes, then washed off with 10 ml PBS (without Mg^2+ and Ca^2+), and resuspended in DMEM, 10% FCS, 1% Penicillin/Streptomycin, no Geneticin. 10'000 cells per well (48 hours before the assay) or 25'000 cells per well (Vi-cell XR (Beckman Coulter) (24 hours before the assay) in 50 μl full medium were seeded on 384-well black-wall, clear bottom plates, that were coated before with 10 μl per well Poly-L-Lysine, incubated for 30-60 minutes at 37° C. and washed once with PBS. Medium was removed from cells and 50 μl of assay buffer containing 0.5 μM YO-[…] was added into the wells. Solutions of antagonist compounds were prepared by serial dilutions of a 10 mM DMSO solution of the antagonist into PBS using a BioMek (Beckman Coulter). Each concentration was performed in duplicate. […] During this time period, four time points were taken. Each time point comprised the average of several measurements made within a few seconds. […] The FLIPR tetra was equipped with Molecular Devices Screen Works system control software to define and run experimental protocols. […] For IC50 measurements the maximum intensity is plotted against the concentration of compound to determine IC50 values.

Row | SMILES | IC50
1 | CCCN(c1ccc(Cl)c(C(=O)NCC2(O)CCCCC2)c1)c1ccnc(Cl)n1 [Example 22, 2-Chloro-5-[(2-chloro-pyrimidin-4-yl)-propyl-amino]-N-(1-hydroxy-cyclohexylmethyl)-benzamide] | 267 nM
2 | CCCN(c1ccc(Cl)c(C(=O)NCC2(O)CCCCC2)c1)c1cc[nH]c(=O)n1 [Example 23, 2-Chloro-N-(1-hydroxy-cyclohexylmethyl)-5-[(2-oxo-1,2-dihydro-pyrimidin-4-yl)-propyl-amino]-benzamide] | 18 nM
3 | CC(C)N(c1ccc(Cl)c(C(=O)NCC2(O)CCCCC2)c1)c1cc[nH]c(=O)n1 [Example 25, 2-Chloro-N-(1-hydroxy-cyclohexylmethyl)-5-[isopropyl-(2-oxo-1,2-dihydro-pyrimidin-4-yl)-amino]-benzamide] | 109 nM
4 | COc1nccc(N(CC(C)C)c2ccc(Cl)c(C(=O)NCC3(O)CCCCC3)c2)n1 [Example 28, 2-Chloro-N-(1-hydroxy-cyclohexylmethyl)-5-[isobutyl-(2-methoxy-pyrimidin-4-yl)-amino]-benzamide] | 353 nM
5 | O=C(NCC1(O)CCCCC1)c1cc(N(Cc2ccccc2)c2cc[nH]c(=O)n2)ccc1Cl [Example 30, 5-[Benzyl-(2-oxo-1,2-dihydro-pyrimidin-4-yl)-amino]-2-chloro-N-(1-hydroxy-cyclohexylmethyl)-benzamide] | 181 nM
6 | COc1nccc(N(Cc2ccccc2)c2ccc(Cl)c(C(=O)NCC3(O)CCCCC3)c2)n1 [Example 31, 5-[Benzyl-(2-methoxy-pyrimidin-4-yl)-amino]-2-chloro-N-(1-hydroxy-cyclohexylmethyl)-benzamide] | 566 nM
7 | COCCN(c1ccc(Cl)c(C(=O)NCC2(O)CCCCC2)c1)c1ccnc(Cl)n1 [Example 32, 2-Chloro-5-[(2-chloro-pyrimidin-4-yl)-(2-methoxy-ethyl)-amino]-N-(1-hydroxy-cyclohexylmethyl)-benzamide] | 531 nM
8 | COCCN(c1ccc(Cl)c(C(=O)NCC2(O)CCCCC2)c1)c1cc[nH]c(=O)n1 [Example 33, 2-Chloro-N-(1-hydroxy-cyclohexylmethyl)-5-[(2-methoxy-ethyl)-(2-oxo-1,2-dihydro-pyrimidin-4-yl)-amino]-benzamide] | 183 nM
9 | O=C(NCC1(O)CCCCC1)c1cc(N(CC2CCCC2)c2cc[nH]c(=O)n2)ccc1Cl [Example 36, 2-Chloro-5-[cyclopentylmethyl-(2-oxo-1,2-dihydro-pyrimidin-4-yl)-amino]-N-(1-hydroxy-cyclohexylmethyl)-benzamide] | 185 nM
10 | O=C(NCC1(O)CCCCC1)c1cc(N(CCOc2ccccc2)c2cc[nH]c(=O)n2)ccc1Cl [Example 39, 2-Chloro-N-(1-hydroxy-cyclohexylmethyl)-5-[(2-oxo-1,2-dihydro-pyrimidin-4-yl)-(2-phenoxy-ethyl)-amino]-benzamide] | 378 nM
11 | COc1nccc(N(CCOc2ccccc2)c2ccc(Cl)c(C(=O)NCC3(O)CCCCC3)c2)n1 [Example 40, 2-Chloro-N-(1-hydroxy-cyclohexylmethyl)-5-[(2-methoxy-pyrimidin-4-yl)-(2-phenoxy-ethyl)-amino]-benzamide] | 588 nM
12 | C[C@@H](NC(=O)c1cc(N(C)c2cc[nH]c(=O)n2)ccc1Cl)C1CCCCC1 [Example 42, 2-Chloro-N—((R)-1-cyclohexyl-ethyl)-5-[methyl-(2-oxo-1,2-dihydro-pyrimidin-4-yl)-amino]-benzamide] | 38 nM
13 | CN(c1ccc(Cl)c(C(=O)N[C@H](CO)C2CCCCC2)c1)c1cc[nH]c(=O)n1 [Example 44, 2-Chloro-N—((S)-1-cyclohexyl-2-hydroxy-ethyl)-5-[methyl-(2-oxo-1,2-dihydro-pyrimidin-4-yl)-amino]-benzamide] | 33 nM
14 | CN(c1ccc(Cl)c(C(=O)NCC2(O)CCCCCC2)c1)c1ccnc(Cl)n1 [Example 45, 2-Chloro-5-[(2-chloro-pyrimidin-4-yl)-methyl-amino]-N-(1-hydroxy-cycloheptylmethyl)-benzamide] | 89 nM
15 | CN(c1ccc(Cl)c(C(=O)NCC2(O)CCCCCC2)c1)c1cc[nH]c(=O)n1 [Example 46, 2-Chloro-N-(1-hydroxy-cycloheptylmethyl)-5-[methyl-(2-oxo-1,2-dihydro-pyrimidin-4-yl)-amino]-benzamide] | 21 nM
16 | CN(c1ccc(Cl)c(C(=O)NCC2(O)CCCCCCC2)c1)c1ccnc(=O)[nH]1 [Example 48, 2-Chloro-N-(1-hydroxy-cyclooctylmethyl)-5-[methyl-(2-oxo-2,3-dihydro-pyrimidin-4-yl)-amino]-benzamide] | 15 nM
17 | CN(c1ccc(Cl)c(C(=O)NCC2(O)CCCC2)c1)c1ccnc(Cl)n1 [Example 49, 2-Chloro-5-[(2-chloro-pyrimidin-4-yl)-methyl-amino]-N-(1-hydroxy-cyclopentylmethyl)-benzamide] | 1120 nM

The remaining compounds from weak to strong by IC50, led by results:

Row | IC50 | SMILES
18 | 860 nM | COCCN(c1ccc(Cl)c(C(=O)NCC2(O)CCCCC2)c1)c1ccnc(OC)n1 [Example 34, 2-Chloro-N-(1-hydroxy-cyclohexylmethyl)-5-[(2-methoxy-ethyl)-(2-methoxy-pyrimidin-4-yl)-amino]-benzamide]
19 | 764 nM | O=C(NCC1(O)CCCCC1)c1cc(N(CCOc2ccccc2)c2ccnc(Cl)n2)ccc1Cl [Example 38, 2-Chloro-5-[(2-chloro-pyrimidin-4-yl)-(2-phenoxy-ethyl)-amino]-N-(1-hydroxy-cyclohexylmethyl)-benzamide]
20 | 456 nM | O=C(NCC1(O)CCCCC1)c1cc(N(Cc2ccccc2)c2ccnc(Cl)n2)ccc1Cl [Example 29, 5-[Benzyl-(2-chloro-pyrimidin-4-yl)-amino]-2-chloro-N-(1-hydroxy-cyclohexylmethyl)-benzamide]
21 | 384 nM | C[C@@H](NC(=O)c1cc(N(C)c2ccnc(Cl)n2)ccc1Cl)C1CCCCC1 [Example 41, 2-Chloro-5-[(2-chloro-pyrimidin-4-yl)-methyl-amino]-N—((R)-1-cyclohexyl-ethyl)-benzamide]
22 | 367 nM | O=C(NCC1(O)CCCCC1)c1cc(N(CC2CCCC2)c2ccnc(Cl)n2)ccc1Cl [Example 35, 2-Chloro-5-[(2-chloro-pyrimidin-4-yl)-cyclopentylmethyl-amino]-N-(1-hydroxy-cyclohexylmethyl)-benzamide]
23 | 317 nM | CC(C)CN(c1ccc(Cl)c(C(=O)NCC2(O)CCCCC2)c1)c1ccnc(Cl)n1 [Example 26, 2-Chloro-5-[(2-chloro-pyrimidin-4-yl)-isobutyl-amino]-N-(1-hydroxy-cyclohexylmethyl)-benzamide]
24 | 236 nM | CC(C)N(c1ccc(Cl)c(C(=O)NCC2(O)CCCCC2)c1)c1ccnc(Cl)n1 [Example 24, 2-Chloro-5-[(2-chloro-pyrimidin-4-yl)-isopropyl-amino]-N-(1-hydroxy-cyclohexylmethyl)-benzamide]
25 | 136 nM | CN(c1ccc(Cl)c(C(=O)N[C@H](CO)C2CCCCC2)c1)c1ccnc(Cl)n1 [Example 43, 2-Chloro-5-[(2-chloro-pyrimidin-4-yl)-methyl-amino]-N—((S)-1-cyclohexyl-2-hydroxy-ethyl)-benzamide]
26 | 116 nM | CN(c1ccc(Cl)c(C(=O)NCC2(O)CCCCCCC2)c1)c1ccnc(Cl)n1 [Example 47, 2-Chloro-5-[(2-chloro-pyrimidin-4-yl)-methyl-amino]-N-(1-hydroxy-cyclooctylmethyl)-benzamide]
27 | 30 nM | CC(C)CN(c1ccc(Cl)c(C(=O)NCC2(O)CCCCC2)c1)c1cc[nH]c(=O)n1 [Example 27, 2-Chloro-N-(1-hydroxy-cyclohexylmethyl)-5-[isobutyl-(2-oxo-1,2-dihydro-pyrimidin-4-yl)-amino]-benzamide]
